TGI and GI50 data for 15 compounds are collected here from PubChem BioAssay (NCI).

Experiment in all cases: inhibition of tumour cell growth, NCI panel, 48 h
Experiment [1] concerns CAKI-1 renal.
Experiment [2] relates to EKVX NSCLC.
Experiment [3] has as its system HCC-2998 colon.
Experiment [4] deals with HCT-15 colon.
In experiment [5] the test system is HOP-92 NSCLC.
For experiment [6], the system named is NCI-H460 lung.
Experiment [7] relates to NCI-H522 lung.
The test system of experiment [8] is OVCAR-5 ovarian.
Experiment [9] concerns U251 CNS.
Experiment [10] has as its system LOX IMVI melanoma.

The structures appear in SMILES notation. Where “and” joins values, the source holds several entries; their conditions need not be identical. Equal entries are not always repeated.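 Method: 48-hour compound exposure of cells in 96-well plates, five concentrations, linear interpolation of endpoints. Here, GI50 denotes the concentration required for 50% inhibition of growth. At the TGI there is no net growth.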 Bounds are passed on as bounds.

For `COC(=O)/C=C1\CCC2[C@@H](C(=O)CC3[C@]2(C)CCC[C@@]3(C)C(=O)OC)C1C` (stereo partly specified), the TGI in [1] is above 100 µM; in experiment [2], 72.8 µM; in [3] it was 97.9 µM; in experiment [4], above 100 µM; in experiment [5] it was 50.6 µM; in experiment [6], 32.9 µM. In addition, the TGI in [7] was 36 µM; in experiment [8], above 100 µM; in experiment [9] it was above 100 µM.

Take `COC(=O)CCc1n(Cc2ccc3ccccc3c2)c2ccccc2[n+]1Cc1ccc2ccccc2c1`: the GI50 in [2] was 1.63 µM; in experiment [3], 0.91 µM; in experiment [4] it was 2.71 µM; in [5], 0.152 µM; in experiment [10], 0.557 µM; in experiment [6] it was 1.18 µM. In addition, the GI50 in [7] is 0.44 µM; in [8] it was 1.18 µM; in experiment [9] it was 1.04 µM. Besides, the TGI in [2] was found to be 5.63 µM; in experiment [3] it was 2.43 µM; in [4], 8.08 µM; in experiment [5] it was 1.12 µM; in [10], 1.93 µM; in [6], 2.7 µM. The TGI worked out at 1.77 µM in experiment [7], 2.77 µM in experiment [8] and 2.3 µM in experiment [9].

Take `CCNCC(=O)Nc1ccc2c(c1)C(=O)c1ccc(NC(=O)CNCC)cc1C2=O`: the TGI in experiment [1] is 29.6 µM; in experiment [2], 20.5 µM; in experiment [3], 3.75 µM; in [4] it was 8.29 µM; in experiment [5] it was 12.5 µM; in [10], 6.58 µM. Also, the TGI in [7] amounted to 4.61 µM; in [8], 10.7 µM; in experiment [9], 5.3 µM.

In the case of `CC(=O)OCC1OC(SC2=N/C(=C\c3ccc(Br)s3)C(=O)N2c2ccccc2)C(OC(C)=O)C(OC(C)=O)C1OC(C)=O` (stereo unspecified), the GI50 is 13.4 µM and 85.7 µM in experiment [1]; 28 µM and 63.1 µM in experiment [9]. Moreover, the TGI was 32.5 µM and > 100 µM in experiment [1]; above 100 µM in experiment [2]; above 100 µM in experiment [3]; above 100 µM in experiment [4]; above 100 µM in experiment [10]; above 100 µM in [6]. Moreover, the TGI in experiment [7] is > 100 µM and 94.3 µM; in experiment [8], above 100 µM; in experiment [9], above 100 µM.

`Clc1ccc(-c2cnc3c(-c4ccnc(N5CCNCC5)c4)cnn3c2)cc1`: the GI50 was 1.9 µM in experiment [1]; 1.83 µM in experiment [2]; 2.02 µM in experiment [3]; 2.7 µM in experiment [4]; 1.91 µM in experiment [10]; 1.89 µM in experiment [6]. The GI50 in experiment [7] is 2.37 µM; in [8] it was 1.82 µM; in experiment [9] it was 1.89 µM. Besides, the TGI in experiment [1] is 3.51 µM; in experiment [2] it was 3.5 µM; in experiment [3], 3.51 µM; in experiment [4], 5.18 µM; in [10], 3.48 µM; in [6], 3.53 µM. Besides, the TGI was determined as 5.89 µM in experiment [7], 3.29 µM in [8] and 3.51 µM in [9].

For the compound `CN1CCc2ccccc2C1Cc1ccccc1NC(=O)c1sc2ccccc2c1Cl` (stereo unspecified), the TGI in [1], in experiment [2], in experiment [3], in experiment [4], in [5] and in [6] was above 100 µM each time. For the same compound, the TGI in [7] and in experiment [9] was above 100 µM in each case.

Take `ClCc1ccccc1Cn1cnc2nc(Cl)nc(Cl)c21`: the GI50 in [1] was 7.16 µM; in experiment [2] it was 0.62 µM; in experiment [3], 3.96 µM; in experiment [4] it was 0.197 µM; in [10], 0.137 µM; in experiment [6] it was 2.09 µM. The GI50 in experiment [7] was 2.94 µM; in [8], 1.71 µM; in experiment [9] it was 0.414 µM. The TGI in [1] is 18.5 µM; in experiment [2], 1.54 µM; in [3], 8.56 µM; in experiment [4] it was 0.434 µM; in experiment [10], 0.301 µM; in experiment [6] it was above 24.3 µM. Also, the TGI in [7] came out at 7.17 µM; in [8] it was 3.65 µM; in experiment [9], 1.47 µM.

For the compound `COc1ccc(C2c3ccc4ccccc4c3Oc3ncn(CCCn4ccnc4)c(=N)c32)cc1OC` (stereo unspecified), the GI50 was 4.84 µM in [1]; 3.45 µM in experiment [3]; 3.37 µM in experiment [4]; 1.3 µM in [5]; 1.88 µM in experiment [10]; 3.65 µM in [6]. Besides, the GI50 in [7] was 1.87 µM; in experiment [8], 4.55 µM; in [9], 2.36 µM. Besides, the TGI came out at 17.8 µM in [1]; 11.2 µM in experiment [3]; 12.8 µM in experiment [4]; 6.64 µM in [5]; 3.7 µM in [10]; 13.2 µM in experiment [6]. Besides, the TGI came to 4.36 µM in experiment [7], 17.8 µM in experiment [8] and 7.69 µM in experiment [9].

`Cc1ccc(-c2cc(C(=O)Nc3ccc(S(=O)(=O)N4CCCCC4)cc3)[nH]n2)c(O)c1`: the GI50 in experiment [1], in [3], in experiment [4], in experiment [5], in experiment [10] and in experiment [6] was above 100 µM throughout. In addition, the GI50 in experiment [7], in experiment [8] and in experiment [9] was above 100 µM in each case. Besides, the TGI in experiment [1], in experiment [3], in [4], in [5], in experiment [10] and in experiment [6] was above 100 µM each time. Further, the TGI in experiment [7], in [8] and in experiment [9] was above 100 µM each time.

Take `O=C1CCC2(c3ccc(Cl)cc3)Nc3ccccc3N12` (stereo unspecified): the TGI in [2] was above 100 µM; in experiment [3], above 100 µM; in experiment [4], above 100 µM; in [5] it was 90.6 µM; in experiment [10], above 100 µM; in experiment [6], above 100 µM. Moreover, the TGI in [7], in experiment [8] and in experiment [9] was above 100 µM throughout.

Regarding `CCCCN(CCCC)P(=O)(Oc1ccccc1)Oc1ccccc1`, the GI50 in experiment [1] was 2.42 µM; in experiment [2], 3.39 µM; in experiment [3], 10 µM; in [4], 4.73 µM; in experiment [10] it was 12.9 µM; in experiment [6], 5.24 µM. The figures for the GI50 in experiment [7], in experiment [8] and in experiment [9] were 3.96 µM, 13.3 µM and 5.59 µM, respectively. The TGI in experiment [1] stood at 11.3 µM; in [2] it was 17.2 µM; in [3] it was 22.2 µM; in [4] it was 22 µM; in experiment [10], 26.5 µM; in [6] it was 18.9 µM. For the same compound, the results for the TGI in experiment [7], in experiment [8] and in experiment [9] were 18.2 µM, 28.3 µM and 19.1 µM, respectively.

As to `CCCCCN(CCCCC)CCC[C@@H](C)[C@H]1CC[C@H]2[C@@H]3[C@H](OCCCN)C[C@@H]4C[C@H](OCCCN)CC[C@]4(C)[C@H]3C[C@H](OCCCN)[C@]12C`, the GI50 was 40.7 µM in experiment [1]; 7.98 µM in experiment [3]; 15.4 µM in [4]; 0.68 µM in experiment [5]; 2.16 µM in experiment [10]; 2.79 µM in experiment [6]. The GI50 in [7] was 2.98 µM; in experiment [8], 10.3 µM; in [9] it was 4.53 µM. For the same compound, the TGI in experiment [1] is above 100 µM; in experiment [3], 24.9 µM; in [4], above 100 µM; in experiment [5], 6.45 µM; in [10] it was 10.2 µM; in experiment [6] it was 17.3 µM. In addition, the TGI amounted to 12.3 µM in experiment [7], 23.4 µM in experiment [8] and 18.4 µM in experiment [9].

Turning to `O=C(O)c1cnc2c(ccc3[nH]cccc32)c1=O`, the TGI in experiment [2], in [3], in experiment [4], in [10], in experiment [6] and in experiment [7] was above 100 µM each time. Further, the TGI in [8] and in experiment [9] was above 100 µM each time.

Take `O=C(COc1ccccc1)NNc1ccccc1`: the GI50 in experiment [1] was 6.78 µM and 5.97 µM; in [3], 27.2 µM and 26.6 µM; in experiment [4], 8.88 µM and 12.3 µM; in experiment [5], 71 µM; in [10], 12.3 µM and 12.2 µM; in [6], 17.1 µM and 15.8 µM. The results for the GI50 in experiment [7], in experiment [8] and in experiment [9] were 7.79 µM, 144 µM and 195 µM, respectively. Besides, the TGI is > 80.2 µM and 182 µM in [1]; above 300 µM in experiment [3]; above 300 µM in experiment [4]; 216 µM in experiment [5]; above 300 µM in experiment [10]; above 300 µM in experiment [6]. Further, the TGI in experiment [8] and in experiment [9] was above 300 µM each time.

As for `COc1ccc(O)c(/C=N\Nc2ccccc2)c1`, the TGI was above 100 µM in [2]; 5.33 µM in experiment [3]; above 100 µM in [4]; above 100 µM in experiment [5]; 13 µM in experiment [10]; above 100 µM in experiment [6]. The TGI is 49.2 µM in [7], above 100 µM in experiment [8] and above 100 µM in experiment [9].
